From PubChem BioAssay (NCI)
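A five-concentration, 48-hour dose response in 96-well plates underlies each endpoint, interpolated linearly between surrounding concentrations. GI50 marks 50% less growth. TGI marks complete inhibition of growth.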

Tests used:
Experiment in all cases: NCI anticancer screen, dose series, 48 h
[1] = test system: UACC-257 melanoma
[2] = test system: MDA-N
[3] = test system: K-562 leukemia
[4] = test system: TK-10 renal
[5] = test system: NCI-H522 lung
[6] = test system: HL-60(TB) leukemia
[7] = test system: SN12C renal
[8] = test system: HOP-92 NSCLC
[9] = test system: OVCAR-4 ovarian
[10] = test system: EKVX NSCLC
[11] = test system: HT29 colon
[12] = test system: HCT-15 colon
[13] = test system: CAKI-1 renal
[14] = test system: M14 melanoma
[15] = test system: NCI-H460 lung
[16] = test system: LOX IMVI melanoma
[17] = test system: MCF7 breast
[18] = test system: KM12 colon
[19] = test system: UACC-62 melanoma
[20] = test system: HS 578T breast
[21] = test system: NCI/ADR-RES ovarian
[22] = test system: SK-MEL-2 melanoma
[23] = test system: OVCAR-8 ovarian
[24] = test system: DU-145 prostate
[25] = test system: COLO 205 colon
[26] = test system: RPMI-8226 leukemia
[27] = test system: SR leukemia
[28] = test system: MOLT-4 leukemia
[29] = test system: U251 CNS
[30] = test system: T-47D breast
[31] = test system: MDA-MB-435
[32] = test system: MALME-3M melanoma
[33] = test system: SW-620 colon
[34] = test system: A498 renal
[35] = test system: SF-539 CNS
[36] = test system: UO-31 renal
[37] = test system: SNB-75 CNS
[38] = test system: CCRF-CEM leukemia
[39] = test system: NCI-H226 lung
[40] = test system: SK-MEL-5 melanoma
[41] = test system: PC-3 prostate
[42] = test system: MDA-MB-231 breast
[43] = test system: BT-549 breast
[44] = test system: OVCAR-5 ovarian
[45] = test system: A549 NSCLC
[46] = test system: ACHN renal
[47] = test system: SF-295 CNS
[48] = test system: SK-MEL-28 melanoma
[49] = test system: 786-0 renal
[50] = test system: SF-268 CNS
[51] = test system: OVCAR-3 ovarian
[52] = test system: RXF 393 renal
[53] = test system: HOP-62 NSCLC
[54] = test system: IGROV1 ovarian
[55] = test system: SNB-19 CNS
[56] = test system: HCC-2998 colon
[57] = test system: NCI-H23 lung
[58] = test system: HCT-116 colon
[59] = test system: SK-OV-3 ovarian

## O=S(=O)(Nc1nccs1)c1ccc(Nc2nc(-c3cccs3)nc3ccc(I)cc23)cc1
[1]
  TGI: > 65.7 µM
[2]
  TGI: > 100 µM
[3]
  TGI: > 55.8 µM
[4]
  TGI: 44.5 µM
[5]
  TGI: > 73.1 µM
[6]
  TGI: > 89.3 µM
[7]
  TGI: > 74.6 µM
[8]
  TGI: 40 µM
[9]
  TGI: 63.2 µM
[10]
  TGI: 48.1 µM
[11]
  TGI: 51.7 µM
[12]
  TGI: > 80.9 µM
[13]
  TGI: 48.7 µM
[14]
  TGI: 58.5 µM
[15]
  TGI: > 81.6 µM
[16]
  TGI: 51.8 µM
[17]
  TGI: > 100 µM
[18]
  TGI: 44.1 µM
[19]
  TGI: 52.6 µM
[20]
  GI50: 14 µM
  TGI: > 70 µM
[21]
  TGI: > 100 µM
[22]
  TGI: > 77.9 µM
[23]
  TGI: > 69.4 µM
[24]
  TGI: 46.5 µM
[25]
  TGI: 38.2 µM
[26]
  TGI: 20.1 µM
[27]
  TGI: 68.4 µM
[28]
  TGI: > 62.4 µM
[29]
  TGI: 54.7 µM
[30]
  TGI: 56.6 µM
[31]
  TGI: 44 µM
[32]
  TGI: 44.2 µM
[33]
  TGI: > 59.6 µM
[34]
  GI50: 17.4 µM
  TGI: > 62.3 µM
[35]
  TGI: 68.3 µM
[36]
  TGI: 65.1 µM
[37]
  TGI: 74 µM
[38]
  TGI: > 19.9 µM
[39]
  TGI: 74.8 µM
[40]
  TGI: 28.4 µM
[41]
  TGI: 32.7 µM
[42]
  GI50: > 37.8 µM
  TGI: > 57.2 µM
[43]
  TGI: 54 µM
[44]
  TGI: 86.3 µM
[45]
  TGI: 71.2 µM
[46]
  TGI: > 75.2 µM
[47]
  TGI: 43.1 µM
[48]
  TGI: 56 µM
[49]
  TGI: 89.4 µM
[50]
  TGI: > 100 µM
[51]
  TGI: 39.9 µM
[52]
  TGI: > 92.2 µM
[53]
  TGI: 51.1 µM
[54]
  TGI: 58.7 µM
[55]
  TGI: > 93 µM
[56]
  TGI: 51.5 µM
[57]
  TGI: > 75.8 µM
[58]
  TGI: 36.8 µM
[59]
  TGI: 67 µM
